Laboratory results published in patent US20220152004A1, “HETEROCYCLYL(PHENYL)METHANOL COMPOUNDS USEFUL IN THE TREATMENT OF HYPERGLYCAEMIA” (ATROGI AB, priority 2019, published 2022).
Where a name gives a salt, the structure may show the parent alone.

Tests used:
L6-myotubes [1] = experiment: Glucose uptake (3H-2-deoxy-glucose) in differentiated L6-myotubes; assay type: cell-based; conditions: agonist final concentration 1×10^−5; for Emax at 10 µM: differentiated L6-myotubes, Table 1, read-out: Biological example 1 (glucose uptake, activity compared to that of isoproterenol)
Description: (§1) L6-myoblasts were grown in Dulbecco's Modified Eagle's Medium (DMEM) containing 4.5 g/l glucose supplemented with 10% fetal bovine serum, 2 mM L-Glutamine, 50 U/ml penicillin, 50 μg/ml streptomycin and 10 mM HEPES. Cells were plated at 1×10^5 cells per ml in 24-well plates. After reaching 90% confluence the cells were grown in medium containing 2% FBS for 7 days where upon cells differentiated into myotubes.
Differentiated L6-myotubes were serum-starved overnight in medium containing 0,5% fatty-acid free BSA and stimulated with agonist, final concentration 1×10^−5. After 1 h 40 min cells were washed with warm, glucose free medium or PBS and another portion of agonist was added to glucose free medium. After 20 min the cells were exposed to 50 nM ^3H-2-deoxy-glucose for another 10 min before washed in ice cold glucose free medium or PBS and lysed in 0.2 M NaOH for 1 h in 60° C.

L6-myotubes [2] = experiment: Measurement of intracellular cAMP levels in differentiated L6-myotubes; assay type: cell-based; conditions: 0.25 h; agonist final concentration 1×10^−5, 15 min; differentiated cells; Table 1; read-out: Biological example 2 (intracellular cAMP levels, activity compared to that of isoproterenol)
Description: as §1
Differentiated cells were serum-starved overnight and stimulated with agonist, final concentration 1×10^−5, for 15 min in stimulation buffer (HBSS supplemented with 1% BSA, 5 mM HEPES and 1 mM IBMX, pH 7,4) The medium was then aspirated and to end the reaction 100 μL of 95% EtOH was added to each well of a 24-well plate and cells were kept in −20° C. over night. The EtOH was let to evaporate and 500 μL of lysis buffer (1% BSA, 5 mM HEPES and 0,3% Tween-20, pH 7,4) was added to each well before put in −80° C. for 30 min and then kept in −20° C. Intracellular cAMP levels were detected using an alpha screen cAMP kit (6760635D from Perkin Elmer). The activity for each compound is compared to that of isoproterenol.

SMILES | Emax at 10 µM (L6-myotubes [1]) [%] | Emax at 10 µM (L6-myotubes [2]) [%] | Biological example 3 (L6-myotubes [1]; Table 2, glucose uptake assay of Biological Example 1)
CC1(C)CCC[C@H]([C@H](O)c2cccc(F)c2)N1 [Example 1, (R)-((R)-6,6-Dimethylpiperidin-2-yl)(3-fluorophenyl)methanol] | 50 to 75 | < 25 | 
CC1(C)CCC[C@H]([C@@H](O)c2cccc(F)c2)N1 [Example 2, (S)-((R)-6,6-Dimethylpiperidin-2-yl)(3-fluorophenyl)methanol] | < 25 | < 25 | 
CC1(C)CCC[C@H]([C@H](O)c2cccc(O)c2)N1 [Example 3, 3-((R)-((R)-6,6-Dimethylpiperidin-2-yl)(hydroxy)methyl)phenol acetate] | 25 to 50 | < 25 | 
CC1(C)CCC[C@H]([C@@H](O)c2cccc(O)c2)N1 [Example 4, 3-((S)-((R)-6,6-Dimethylpiperidin-2-yl)(hydroxy)methyl)phenol acetate] | 25 to 50 | < 25 | 
CC1(C)CCC[C@H]([C@H](O)c2ccccc2Cl)N1 [Example 5, (R)-(2-Chlorophenyl)((R)-6,6-dimethylpiperidin-2-yl)methanol hydrochloride] | 25 to 50 | < 25 | 
CC1(C)CCC[C@H]([C@@H](O)c2ccccc2Cl)N1 [Example 6, (S)-(2-Chlorophenyl)((R)-6,6-dimethylpiperidin-2-yl)methanol hydrochloride] | > 75 | < 25 | 
CC1(C)CCC[C@H]([C@H](O)c2cccc(Cl)c2)N1 [Example 7, hydrochloride] | 25 to 50 | < 25 | 
CC1(C)CCC[C@H]([C@H](O)c2ccccc2F)N1 [Example 9, (R)-((R)-6,6-Dimethylpiperidin-2-yl)(2-fluorophenyl)methanol hydrochloride] | 50 to 75 | < 25 | 
CC1(C)CCC[C@H]([C@@H](O)c2ccccc2F)N1 [Example 10, (S)-((R)-6,6-Dimethylpiperidin-2-yl)(2-fluorophenyl)methanol hydrochloride] | > 75 | 25 to 50 | 
CC1(C)CC[C@H]([C@H](O)c2cccc(F)c2)N1 [Example 11, (R)-((R)-5,5-Dimethylpyrrolidin-2-yl)(3-fluorophenyl)methanol hydrochloride] | > 75 | < 25 | 
CC1(C)CC[C@H]([C@@H](O)c2cccc(F)c2)N1 [Example 12, (S)-((R)-5,5-Dimethylpyrrolidin-2-yl)(3-fluorophenyl)methanol hydrochloride] | 25 to 50 | < 25 | 
CC1(C)CC[C@@H]([C@H](O)c2cccc(F)c2)N1 [Example 13, (R)-((S)-5,5-Dimethylpyrrolidin-2-yl)(3-fluorophenyl)methanol hydrochloride] | < 25 | < 25 | 
CC1(C)CC[C@@H]([C@@H](O)c2cccc(F)c2)N1 [Example 14, (S)-((S)-5,5-Dimethylpyrrolidin-2-yl)(3-fluorophenyl)methanol hydrochloride] | 25 to 50 | < 25 | 
CC1(C)CC[C@H]([C@H](O)c2cccc(O)c2)N1 [Example 15, (R)-((R)-5,5-Dimethylpyrrolidin-2-yl)(hydroxy)methyl)phenol acetate] | > 75 | < 25 | 
CC1(C)CC[C@H]([C@@H](O)c2cccc(O)c2)N1 [Example 16, (S)-((R)-5,5-Dimethylpyrrolidin-2-yl)(hydroxy)methyl)phenol acetate] | 50 to 75 | < 25 | 
CC1(C)CC[C@@H]([C@H](O)c2cccc(O)c2)N1 [Example 17] | 25 to 50 | < 25 | 
CC1(C)CC[C@@H]([C@@H](O)c2cccc(O)c2)N1 [Example 18] | < 25 | < 25 | 
CC1(C)CC[C@H]([C@H](O)c2ccccc2F)N1 [Example 19, (R)-((R)-5,5-Dimethylpyrrolidin-2-yl)(2-fluorophenyl)methanol hydrochloride] | > 75 | < 25 | 
CC1(C)CC[C@H]([C@@H](O)c2ccccc2F)N1 [Example 20, (S)-((R)-5,5-Dimethylpyrrolidin-2-yl)(2-fluorophenyl)methanol hydrochloride] | 25 to 50 | < 25 | 
CC1(C)CC[C@H]([C@H](O)c2ccc(F)cc2)N1 [Example 21, (R)-((R)-5,5-Dimethylpyrrolidin-2-yl)(4-fluorophenyl)methanol hydrochloride] | 50 to 75 | < 25 | 
CC1(C)CC[C@H]([C@@H](O)c2ccc(F)cc2)N1 [Example 22, (S)-((R)-5,5-Dimethylpyrrolidin-2-yl)(4-fluorophenyl)methanol hydrochloride] | < 25 | < 25 | 
CC1(C)CC[C@H]([C@H](O)c2ccccc2Cl)N1 [Example 23, (R)-(2-Chlorophenyl)((R)-5,5-dimethylpyrrolidin-2-yl)methanol hydrochloride] | > 75 | < 25 | 
CC1(C)CC[C@H]([C@@H](O)c2ccccc2Cl)N1 [Example 24, (S)-(2-Chlorophenyl)((R)-5,5-dimethylpyrrolidin-2-yl)methanol hydrochloride] | < 25 | < 25 | 
CC1(C)CC[C@H]([C@H](O)c2cccc(Cl)c2)N1 [Example 25, (R)-(3-Chlorophenyl)((R)-5,5-dimethylpyrrolidin-2-yl)methanol hydrochloride] | > 75 | < 25 | 
CCCC1(CCC)CC[C@H]([C@H](O)c2cccc(F)c2)N1 [Example 27, (R)-((R)-5,5-Dipropylpyrrolidin-2-yl)(3-fluorophenyl)methanol hydrochloride] | 50 to 75 | < 25 | 
CCCC1(CCC)CC[C@H]([C@@H](O)c2cccc(F)c2)N1 [Example 28, (S)-((R)-5,5-Dipropylpyrrolidin-2-yl)(3-fluorophenyl)methanol hydrochloride] | < 25 | < 25 | 
O[C@H](c1cccc(F)c1)[C@H]1CCC2(CC2)N1 [Example 29, (R)-(3-Fluorophenyl)((R)-4-azaspiro[2.4]heptan-5-yl)methanol hydrochloride] | 50 to 75 | < 25 | 
O[C@@H](c1cccc(F)c1)[C@H]1CCC2(CC2)N1 [Example 30, (S)-(3-Fluorophenyl)((R)-4-azaspiro[2.4]heptan-5-yl)methanol hydrochloride] | 25 to 50 | < 25 | 
O[C@H](c1cccc(F)c1)[C@H]1CCC2(CCCC2)N1 [Example 31, (R)-(3-Fluorophenyl)((R)-1-azaspiro[4.4]nonan-2-yl)methanol maleate] | 50 to 75 | 25 to 50 | 
CC1(C)CC[C@H]([C@@H](O)c2cc(F)c(N)c(F)c2)N1.Cl [Example 51, (S)-(4-Amino-3,5-difluorophenyl)((R)-5,5-dimethylpyrrolidin-2-yl)methanol hydrochloride] |  |  | +++ (more than 75% of that of isoproterenol)
